Literature values as cited in patent US4939134A, “26-aminocholesterol and derivatives and analogs thereof in the regulation of cholesterol accumulation in body tissue” (New York University, priority 1988, dated 1990).

Legend:
[1] = tested on: hepatic cholesterol synthesis; conditions: cited from earlier work
[2] = tested on: HMG CoA reductase; conditions: cited from earlier work
[3] = tested on: LDL receptors; conditions: fibroblasts and other non-hepatic cells, cell culture studies; cited from earlier work

## CC[C@H](C)C(=O)O[C@H]1C[C@@H](C)C=C2C=C[C@H](C)[C@H](CC[C@@H]3C[C@@H](O)CC(=O)O3)[C@H]21 [mevinolin]
[1]
  hepatic cholesterol synthesis: inhibit hepatic cholesterol synthesis
[2]
  amount of HMG CoA reductase: increases the amount of HMG CoA reductase
[3]
  LDL receptors: upregulates LDL receptors
